The record followed here is publication PMC8080530, “Glucocorticoid receptor Thr524 phosphorylation by MINK1 induces interactions with 14-3-3 protein regulators” (The Journal of Biological Chemistry, 2021).

Read-outs that look alike come from different tables or passages of the source. Non-standard residues stand in square brackets, D forms with d. Residues, ends and D or L forms follow the SMILES beside them. *: point of attachment. 6FAM = O=C1OC2(c3ccc(O)cc3Oc3cc(O)ccc32)c2cc(C(=O)*)ccc21; pT = C[C@@H](OP(=O)(O)O)[C@H](N)C(=O)O; pS = N[C@@H](COP(=O)(O)O)C(=O)O

This test deals with T1, 14-3-3ζ (Homo sapiens, UniProt P63104).
T1 construct: Full-length expression and purification of 14-3-3; made in house; host or cells: E. coli BL21 (DE3)STAR
T1 sequence (P63104 1-245): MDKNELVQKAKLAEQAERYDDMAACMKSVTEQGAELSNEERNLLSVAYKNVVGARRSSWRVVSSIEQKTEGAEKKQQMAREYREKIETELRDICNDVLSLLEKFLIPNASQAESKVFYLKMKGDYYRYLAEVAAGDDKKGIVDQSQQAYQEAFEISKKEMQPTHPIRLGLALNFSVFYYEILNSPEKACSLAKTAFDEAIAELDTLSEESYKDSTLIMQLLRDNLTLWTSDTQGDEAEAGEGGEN
The test is described as follows: FP assay with GR phosphorylated peptides and 14-3-3ζ. In kind it is binding. Summed up:
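Fluorescence polarization (ex 485/em 520 nm) was read in triplicate after 30-min RT incubation. Binding data were fitted to a standard Hill equation and expressed in mP units. The dynamic range (ΔmP) is the difference between bound and free peptide signals.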

Where [1] appears, read: FITC-labeled peptide 60 nM (monophosphorylated) or 10 nM (doubly phosphorylated) titrated with 14-3-3ζ, 30 min RT, Hill fit, triplicates, read-out: Kd with 14-3-3ζ by FP.

For the compound `CC[C@H](C)[C@H](NC(=O)[C@@H](NC(=O)[C@@H](N)CCCCN)[C@@H](C)O)C(=O)N[C@H](C(=O)N1CCC[C@H]1C(=O)N[C@@H](C)C(=O)N[C@H](C(=O)N[C@@H](CC(C)C)C(=O)N1CCC[C@H]1C(=O)N[C@@H](CCC(N)=O)C(=O)N[C@@H](CC(C)C)C(=O)N[C@H](C(=O)N1CCC[C@H]1C(=O)NCC(=O)NCC(=O)NCC(=O)NCC(=O)NCC(=O)N[C@@H](CCCNC(=N)N)C(=O)N[C@@H](CO)C(=O)N[C@@H](C)C(=O)N[C@@H](CCCNC(=N)N)C(=O)N[C@@H](CCC(N)=O)C(=O)N[C@@H](CO)C(=O)N[C@@H](COP(=O)(O)O)C(=O)N[C@@H](C)C(=O)N[C@@H](CC(N)=O)C(=O)N[C@@H](CC(C)C)C(=O)N[C@@H](CC(C)C)C(=O)N[C@@H](CS)C(=O)N[C@@H](Cc1ccccc1)C(=O)O)[C@@H](C)O)[C@@H](C)OP(=O)(O)O)C(C)C` [GR_Y613A] (H-KTIVPA[pT]LPQLTPGGGGGRSARQS[pS]ANLLCF-OH), the Kd (read-out: PKd with 14-3-3ζ (converted)) was 0.0794 µM.
`CC(C)C[C@H](NC(=O)[C@H](CO)NC(=O)[C@@H]1CCCN1C(=O)[C@H](COP(=O)(O)O)NC(=O)[C@H](CO)NC(=O)[C@H](C)NC(=O)[C@H](CO)NC(=O)[C@@H](NC(=O)[C@H](CCCCN)NC(=O)[C@@H](N)C(C)C)C(C)C)C(=O)N[C@@H](C)C(=O)N[C@H](C(=O)N[C@@H](C)C(=O)O)C(C)C` [GR_pS45] (H-VKVSAS[pS]PSLAVA-OH; N-terminus assumed): the Kd under setting [1] is greater than 150 µM.
On to `CSCC[C@H](NC(=O)[C@H](CO)NC(=O)[C@H](CC(C)C)NC(=O)[C@H](COP(=O)(O)O)NC(=O)[C@@H](NC(=O)[C@H](C)NC(=O)[C@H](CCCCN)NC(=O)[C@H](CO)NC(=O)[C@H](CC(C)C)NC(=O)[C@H](CC(=O)O)NC(=O)c1ccc2c(c1)C1(OC2=O)c2ccc(O)cc2Oc2cc(O)ccc21)C(C)C)C(=O)NCC(=O)N[C@@H](CC(C)C)C(=O)N[C@@H](Cc1ccc(O)cc1)C(=O)NCC(=O)NCC(=O)NCC(=O)NCC(=O)NCC(=O)N[C@@H](CC(N)=O)C(=O)N[C@@H](CC(C)C)C(=O)N[C@@H](CC(N)=O)C(=O)N[C@@H](CCCNC(=N)N)C(=O)N[C@@H](CO)C(=O)N[C@H](C(=O)N[C@@H](COP(=O)(O)O)C(=O)N[C@H](C(=O)N1CCC[C@H]1C(=O)N[C@@H](CCC(=O)O)C(=O)N[C@@H](CC(N)=O)C(=O)N1CCC[C@H]1C(=O)N[C@@H](CCCCN)C(=O)O)C(C)C)[C@@H](C)O` [GR_pS83-pS134] (6FAM-DLSKAV[pS]LSMGLYGGGGGNLNRST[pS]VPENPK-OH; C-terminus assumed), for which the Kd under setting [1] stood at 22 ± 8 µM. Besides, under “ratio of Kd values”, the “fold decrease in binding affinity with 14-3-3ζ relative to GR_pT524-pS617” value was “at least 15 fold”.
With `CC[C@H](C)[C@H](NC(=O)[C@H](CCC(N)=O)NC(=O)CNC(=O)[C@@H](N)CCC(N)=O)C(=O)N[C@@H](CO)C(=O)N[C@@H](CC(C)C)C(=O)N[C@@H](COP(=O)(O)O)C(=O)N[C@@H](CO)C(=O)NCC(=O)N[C@@H](CCC(=O)O)C(=O)N[C@H](C(=O)N[C@@H](CC(=O)O)C(=O)N[C@@H](CC(C)C)C(=O)O)[C@@H](C)O` [GR_pS113] (H-QGQISL[pS]SGETDL-OH; N-terminus and C-terminus assumed), the Kd under setting [1] is greater than 150 µM.
Still for that read-out and setting: as for `CC[C@H](C)[C@H](NC(=O)[C@@H](NC(=O)[C@H](CCCCN)NC(=O)CNC(=O)CNC(=O)CNC(=O)CNC(=O)CNC(=O)[C@H](CCCCN)NC(=O)[C@@H]1CCCN1C(=O)[C@H](CC(N)=O)NC(=O)[C@H](CCC(=O)O)NC(=O)[C@@H]1CCCN1C(=O)[C@@H](NC(=O)[C@H](COP(=O)(O)O)NC(=O)[C@@H](NC(=O)[C@H](CO)NC(=O)[C@H](CCCNC(=N)N)NC(=O)[C@H](CC(N)=O)NC(=O)[C@H](CC(C)C)NC(=O)[C@H](CC(N)=O)NC(=O)c1ccc2c(c1)C1(OC2=O)c2ccc(O)cc2Oc2cc(O)ccc21)[C@@H](C)O)C(C)C)[C@@H](C)O)C(=O)N[C@H](C(=O)N1CCC[C@H]1C(=O)N[C@@H](C)C(=O)N[C@H](C(=O)N[C@@H](CC(C)C)C(=O)N1CCC[C@H]1C(=O)N[C@@H](CCC(N)=O)C(=O)N[C@@H](CC(C)C)C(=O)N[C@H](C(=O)N1CCC[C@H]1C(=O)O)[C@@H](C)O)[C@@H](C)OP(=O)(O)O)C(C)C` [GR_pS134-pT524] (6FAM-NLNRST[pS]VPENPKGGGGGKTIVPA[pT]LPQLTP-OH; C-terminus assumed), the figure is 0.55 µM.
